Assay results as given in ChEMBL document CHEMBL6127119 (J Med Chem, 2024).
≈ marks a conversion by molar mass, not a printed value.

Key:
Format in all cases: functional
Details in all cases: time 16-24 hrs
Staphylococcus aureus [1] = experiment: Antibacterial activity against methicillin-susceptible Staphylococcus aureus incubated for 16 to 24 hrs by CLSI based broth microdilution method
Staphylococcus aureus [2] = experiment: Antibacterial activity against vancomycin-intermediate Staphylococcus aureus incubated for 16 to 24 hrs by CLSI based broth microdilution method
Enterococcus faecium [3] = experiment: Antibacterial activity against vancomycin-resistant Enterococcus faecium harboring VanA phenotype incubated for 16 to 24 hrs by CLSI based broth microdilution method
Enterococcus faecium [4] = experiment: Antibacterial activity against vancomycin-resistant Enterococcus faecium harboring VanM phenotype incubated for 16 to 24 hrs by CLSI based broth microdilution method
Enterococcus faecium [5] = experiment: Antibacterial activity against vancomycin-resistant Enterococcus faecium harboring VanB phenotype incubated for 16 to 24 hrs by CLSI based broth microdilution method
Escherichia coli [6] = experiment: Antibacterial activity against Escherichia coli AB1157 incubated for 16 to 24 hrs by CLSI based broth microdilution method
Acinetobacter baumannii [7] = experiment: Antibacterial activity against Carbapenem-resistant Acinetobacter baumannii clinical isolate incubated for 16 to 24 hrs by CLSI based broth microdilution method
Klebsiella pneumoniae = experiment: Antibacterial activity against Klebsiella pneumoniae clinical isolate incubated for 16 to 24 hrs by CLSI based broth microdilution method
Pseudomonas aeruginosa = experiment: Antibacterial activity against Pseudomonas aeruginosa PAO1 incubated for 16 to 24 hrs by CLSI based broth microdilution method
Staphylococcus aureus [8] = experiment: Potency index, ratio of Vancomycin MIC to test compound MIC for vancomycin-intermediate Staphylococcus aureus incubated for 16 to 24 hrs by CLSI based broth microdilution method
Enterococcus faecium [9] = experiment: Potency index, ratio of Vancomycin MIC to test compound MIC for vancomycin-resistant Enterococcus faecium incubated for 16 to 24 hrs by CLSI based broth microdilution method
Escherichia coli [10] = experiment: Potency index, ratio of Vancomycin MIC to test compound MIC for Escherichia coli […] incubated for 16 to 24 hrs by CLSI based broth microdilution method
Acinetobacter baumannii [11] = experiment: Potency index, ratio of Vancomycin MIC to test compound MIC for Carbapenem-resistant Acinetobacter baumannii clinical isolate incubated for 16 to 24 hrs by CLSI based broth microdilution method
Staphylococcus aureus [12] = experiment: Potency index, ratio of Norvancomycin MIC to test compound MIC for vancomycin-intermediate Staphylococcus aureus incubated for 16 to 24 hrs by CLSI based broth microdilution method
Enterococcus faecium [13] = experiment: Potency index, ratio of Norvancomycin MIC to test compound MIC for vancomycin-resistant Enterococcus faecium incubated for 16 to 24 hrs by CLSI based broth microdilution method
Escherichia coli [14] = experiment: Potency index, ratio of Norvancomycin MIC to test compound MIC for Escherichia coli […] incubated for 16 to 24 hrs by CLSI based broth microdilution method
Acinetobacter baumannii [15] = experiment: Potency index, ratio of Norvancomycin MIC to test compound MIC for Carbapenem-resistant Acinetobacter baumannii clinical isolate incubated for 16 to 24 hrs by CLSI based broth microdilution method

SMILES	MIC (Staphylococcus aureus [1])	MIC (Staphylococcus aureus [2])	MIC (Enterococcus faecium [3])	MIC (Enterococcus faecium [4])	MIC (Enterococcus faecium [5])	MIC (Escherichia coli [6])	MIC (Acinetobacter baumannii [7])	MIC (Klebsiella pneumoniae)	MIC (Pseudomonas aeruginosa)	Ratio (Staphylococcus aureus [8])	Ratio (Enterococcus faecium [9])	Ratio (Escherichia coli [10])	Ratio (Acinetobacter baumannii [11])	Ratio (Staphylococcus aureus [12])	Ratio (Enterococcus faecium [13])	Ratio (Escherichia coli [14])	Ratio (Acinetobacter baumannii [15])
CC(C)C[C@@H](N)C(=O)N[C@H]1C(=O)N[C@@H](CC(N)=O)C(=O)N[C@H]2C(=O)N[C@H]3C(=O)N[C@H](C(=O)N[C@H](C(=O)NCCc4ccc(-c5ccc(CNC(=N)N)cc5)cc4)c4cc(O)cc(O)c4-c4cc3ccc4O)[C@H](O)c3ccc(c(Cl)c3)Oc3cc2cc(c3O[C@@H]2O[C@H](CO)[C@@H](O)[C@H](O)[C@H]2O[C@H]2C[C@](C)(N)[C@H](O)[C@H](C)O2)Oc2ccc(cc2Cl)[C@H]1O	0.125 µg/mL (≈ 0.0742 µM)	0.5 µg/mL (≈ 0.297 µM)	4 µg/mL (≈ 2.37 µM)	4 µg/mL (≈ 2.37 µM)	4 µg/mL (≈ 2.37 µM)	8 µg/mL (≈ 4.75 µM)	128 µg/mL (≈ 75.9 µM)	> 128 µg/mL	> 128 µg/mL	2	2	2	2	2	2	2	2
CN[C@H](CC(C)C)C(=O)N[C@H]1C(=O)N[C@@H](CC(N)=O)C(=O)N[C@H]2C(=O)N[C@H]3C(=O)N[C@H](C(=O)N[C@H](C(=O)NCc4ccc(-c5ccc(CNC(=N)N)cc5)cc4)c4cc(O)cc(O)c4-c4cc3ccc4O)[C@H](O)c3ccc(c(Cl)c3)Oc3cc2cc(c3O[C@@H]2O[C@H](CO)[C@@H](O)[C@H](O)[C@H]2O[C@H]2C[C@](C)(N)[C@H](O)[C@H](C)O2)Oc2ccc(cc2Cl)[C@H]1O	0.125 µg/mL (≈ 0.0742 µM)	0.5 µg/mL (≈ 0.297 µM)	2 µg/mL (≈ 1.19 µM)	2 µg/mL (≈ 1.19 µM)	1 µg/mL (≈ 0.593 µM)	8 µg/mL (≈ 4.75 µM)	32 µg/mL (≈ 19 µM)	> 128 µg/mL		2	2	2	2	2	2	2	2
CN[C@H](CC(C)C)C(=O)N[C@H]1C(=O)N[C@@H](CC(N)=O)C(=O)N[C@H]2C(=O)N[C@H]3C(=O)N[C@H](C(=O)N[C@H](C(=O)NCCc4ccc(-c5ccc(CNC(=N)N)cc5)cc4)c4cc(O)cc(O)c4-c4cc3ccc4O)[C@H](O)c3ccc(c(Cl)c3)Oc3cc2cc(c3O[C@@H]2O[C@H](CO)[C@@H](O)[C@H](O)[C@H]2O[C@H]2C[C@](C)(N)[C@H](O)[C@H](C)O2)Oc2ccc(cc2Cl)[C@H]1O	0.125 µg/mL (≈ 0.0735 µM)	0.5 µg/mL (≈ 0.294 µM)	2 µg/mL (≈ 1.18 µM)	2 µg/mL (≈ 1.18 µM)	4 µg/mL (≈ 2.35 µM)	8 µg/mL (≈ 4.71 µM)	64 µg/mL (≈ 37.7 µM)	> 128 µg/mL		2	2	2	2	2	2	2	2
CC(C)C[C@@H](N)C(=O)N[C@H]1C(=O)N[C@@H](CC(N)=O)C(=O)N[C@H]2C(=O)N[C@H]3C(=O)N[C@H](C(=O)N[C@H](C(=O)NCc4ccc(-c5ccc(CCNC(=N)N)cc5)cc4)c4cc(O)cc(O)c4-c4cc3ccc4O)[C@H](O)c3ccc(c(Cl)c3)Oc3cc2cc(c3O[C@@H]2O[C@H](CO)[C@@H](O)[C@H](O)[C@H]2O[C@H]2C[C@](C)(N)[C@H](O)[C@H](C)O2)Oc2ccc(cc2Cl)[C@H]1O	0.125 µg/mL (≈ 0.0742 µM)	0.5 µg/mL (≈ 0.297 µM)	4 µg/mL (≈ 2.37 µM)	2 µg/mL (≈ 1.19 µM)	4 µg/mL (≈ 2.37 µM)	8 µg/mL (≈ 4.75 µM)	64 µg/mL (≈ 38 µM)	> 128 µg/mL	> 128 µg/mL	2	2	2	2	2	2	2	2
CN[C@H](CC(C)C)C(=O)N[C@H]1C(=O)N[C@@H](CC(N)=O)C(=O)N[C@H]2C(=O)N[C@H]3C(=O)N[C@H](C(=O)N[C@H](C(=O)NCc4ccc(-c5ccc(CCNC(=N)N)cc5)cc4)c4cc(O)cc(O)c4-c4cc3ccc4O)[C@H](O)c3ccc(c(Cl)c3)Oc3cc2cc(c3O[C@@H]2O[C@H](CO)[C@@H](O)[C@H](O)[C@H]2O[C@H]2C[C@](C)(N)[C@H](O)[C@H](C)O2)Oc2ccc(cc2Cl)[C@H]1O	0.25 µg/mL (≈ 0.147 µM)	0.5 µg/mL (≈ 0.294 µM)	2 µg/mL (≈ 1.18 µM)	2 µg/mL (≈ 1.18 µM)	1 µg/mL (≈ 0.588 µM)	8 µg/mL (≈ 4.71 µM)	16 µg/mL (≈ 9.41 µM)	> 128 µg/mL		2	2	2	2	2	2	2	2
CC(C)C[C@@H](N)C(=O)N[C@H]1C(=O)N[C@@H](CC(N)=O)C(=O)N[C@H]2C(=O)N[C@H]3C(=O)N[C@H](C(=O)N[C@H](C(=O)NCCc4ccc(-c5ccc(CN)cc5)cc4)c4cc(O)cc(O)c4-c4cc3ccc4O)[C@H](O)c3ccc(c(Cl)c3)Oc3cc2cc(c3O[C@@H]2O[C@H](CO)[C@@H](O)[C@H](O)[C@H]2O[C@H]2C[C@](C)(N)[C@H](O)[C@H](C)O2)Oc2ccc(cc2Cl)[C@H]1O	0.25 µg/mL (≈ 0.152 µM)	1 µg/mL (≈ 0.608 µM)	4 µg/mL (≈ 2.43 µM)	8 µg/mL (≈ 4.87 µM)	8 µg/mL (≈ 4.87 µM)	8 µg/mL (≈ 4.87 µM)	128 µg/mL (≈ 77.9 µM)	> 128 µg/mL	> 128 µg/mL								
CC(C)C[C@@H](N)C(=O)N[C@H]1C(=O)N[C@@H](CC(N)=O)C(=O)N[C@H]2C(=O)N[C@H]3C(=O)N[C@H](C(=O)N[C@H](C(=O)NCc4ccc(-c5ccc(CCN)cc5)cc4)c4cc(O)cc(O)c4-c4cc3ccc4O)[C@H](O)c3ccc(c(Cl)c3)Oc3cc2cc(c3O[C@@H]2O[C@H](CO)[C@@H](O)[C@H](O)[C@H]2O[C@H]2C[C@](C)(N)[C@H](O)[C@H](C)O2)Oc2ccc(cc2Cl)[C@H]1O	0.25 µg/mL (≈ 0.152 µM)	1 µg/mL (≈ 0.608 µM)	4 µg/mL (≈ 2.43 µM)	16 µg/mL (≈ 9.74 µM)	8 µg/mL (≈ 4.87 µM)	16 µg/mL (≈ 9.74 µM)	> 128 µg/mL	> 128 µg/mL	> 128 µg/mL								
CC(C)C[C@@H](N)C(=O)N[C@H]1C(=O)N[C@@H](CC(N)=O)C(=O)N[C@H]2C(=O)N[C@H]3C(=O)N[C@H](C(=O)N[C@H](C(=O)NCCNC(=O)[C@@H](N)CCCNC(=N)N)c4cc(O)cc(O)c4-c4cc3ccc4O)[C@H](O)c3ccc(c(Cl)c3)Oc3cc2cc(c3O[C@@H]2O[C@H](CO)[C@@H](O)[C@H](O)[C@H]2O[C@H]2C[C@](C)(N)[C@H](O)[C@H](C)O2)Oc2ccc(cc2Cl)[C@H]1O	1 µg/mL (≈ 0.612 µM)	2 µg/mL (≈ 1.22 µM)	16 µg/mL (≈ 9.79 µM)	64 µg/mL (≈ 39.2 µM)	16 µg/mL (≈ 9.79 µM)	32 µg/mL (≈ 19.6 µM)	64 µg/mL (≈ 39.2 µM)	> 128 µg/mL	128 µg/mL (≈ 78.4 µM)								
